Blank lines part the entries; values can stand above or below the compound they belong to.
Test: photoluminescence quantum yield (fraction); solvent given as SMILES

photoluminescence quantum yield (in ClCCl): 0.64
Structure (SMILES): Fc1ccc(N(c2ccc(F)cc2)c2ccc3c4cccc5c(N(c6ccc(F)cc6)c6ccc(F)cc6)ccc(c6cccc2c63)c54)cc1

photoluminescence quantum yield (in ClCCl): 0.19
Structure (SMILES): CN(C)c1ccc(N2c3sc4ccccc4c3Sc3c2sc2ccccc32)cc1

photoluminescence quantum yield (in ClC(Cl)Cl): 0.38
Structure (SMILES): F[B-]1(F)n2c(cc3c2-c2ccccc2CC3)C(c2ccc(I)cc2)=C2C=C3CCc4ccccc4C3=[N+]21

Structure (SMILES): COc1cc2c(cc1/C=C/C(=C(C#N)C#N)c1ccccc1)c1ccccc1n2C
photoluminescence quantum yield (in C1CCOC1): 0.008
photoluminescence quantum yield (in CC#N): 0.014
photoluminescence quantum yield (in CCO): 0.012
photoluminescence quantum yield (in CCOC(C)=O): 0.009
photoluminescence quantum yield (in CN(C)C=O): 0.022
photoluminescence quantum yield (in CO): 0.012
photoluminescence quantum yield (in CS(C)=O): 0.033
photoluminescence quantum yield (in Cc1ccccc1): 0.007
photoluminescence quantum yield (in ClC(Cl)Cl): 0.018
photoluminescence quantum yield (in ClCCl): 0.022

photoluminescence quantum yield (in ClCCl): 0.78
Structure (SMILES): C(=C\c1nc(/C=C/c2ccc(N(c3ccccc3)c3ccccc3)cc2)cc(/C=C/c2ccc(N(c3ccccc3)c3ccccc3)cc2)n1)/c1ccccc1

photoluminescence quantum yield (in ClCCl): 0.06
Structure (SMILES): [O-][n+]1c(/C=C/C=C/c2ccccc2)nc(N2CCOCC2)c2c1CCCC2

photoluminescence quantum yield (in ClCCl): 0.94
Structure (SMILES): CCCCC(CC)COc1ccc2nc(-c3ccc(-c4ccc(N(C)C)cc4)s3)sc2c1 (configuration not stated)

photoluminescence quantum yield (in ClCCl): 0.131
Structure (SMILES): Cc1ccc(-c2c3nc(c(-c4ccc(C)cc4)c4ccc([nH]4)c(-c4ccc(OC(=O)C(C)c5ccc(-c6ccccc6)c(F)c5)cc4)c4nc(c(-c5ccc(C)cc5)c5ccc2[nH]5)C=C4)C=C3)cc1 (configuration not stated)

Structure (SMILES): CC(=O)O[B-]1(OC(C)=O)OC(/C=C/c2ccc(C)cc2)=CC(/C=C/c2ccc(C)cc2)=[O+]1
photoluminescence quantum yield (in C1CCOC1): 0.75
photoluminescence quantum yield (in CC#N): 0.55
photoluminescence quantum yield (in CC(C)=O): 0.58
photoluminescence quantum yield (in CS(C)=O): 0.51
photoluminescence quantum yield (in Cc1ccccc1): 0.88
photoluminescence quantum yield (in ClC(Cl)Cl): 0.63
photoluminescence quantum yield (in ClCCl): 0.56

photoluminescence quantum yield (in CS(C)=O): 0.7
photoluminescence quantum yield (in O): 0.92
Structure (SMILES): CCCCCn1c2ccc(S(=O)(=O)O)cc2c(=O)c2cc(S(=O)(=O)O)ccc21

photoluminescence quantum yield (in ClCCl): 0.01
Structure (SMILES): O=S1(=O)C2=C(c3ccccc31)C1(c3ccccc32)c2ccccc2-c2sc3ccccc3c21 (configuration not stated)

photoluminescence quantum yield (in ClC(Cl)Cl): 0.14
Structure (SMILES): CCCCc1ccc(-n2c3c4ccc(C(F)(F)F)cc4nc(-c4ccc(C#N)cc4)c3c3c2c2c(-c4ccc(C#N)cc4)nc4cc(C(F)(F)F)ccc4c2n3-c2ccc(CCCC)cc2)cc1

Structure (SMILES): CC1(C)c2cc(C#N)ccc2-c2ccc(N3c4ccccc4Oc4ccccc43)cc21
photoluminescence quantum yield (in C1CCCCC1): 0.044
photoluminescence quantum yield (in C1CCOC1): 0.08
photoluminescence quantum yield (in CC#N): 0.001
photoluminescence quantum yield (in Cc1ccccc1): 0.089
photoluminescence quantum yield (in ClC(Cl)Cl): 0.11

photoluminescence quantum yield (in C1CCOC1): 0.34
Structure (SMILES): C(=C\c1ccc(/C=C/c2c3ccccc3cc3ccccc23)cc1)/c1ccncc1

photoluminescence quantum yield (in C1CCOC1): 0.03
Structure (SMILES): CC(=O)c1ccc(-c2ccc3c(c2)C(=O)c2cc(-c4ccc(C(C)=O)cc4)ccc2-3)cc1

photoluminescence quantum yield (in ClCCl): 0.29
Structure (SMILES): O=c1oc2ccccc2c2c1c(=O)oc1c3ccccc3cc(O)c12

photoluminescence quantum yield (in C1CCCCC1): 0.0007
photoluminescence quantum yield (in CC#N): 0.017
Structure (SMILES): Cc1ccc(/C=C/c2ccccc2-[n+]2cc([O-])on2)cc1

photoluminescence quantum yield (in ClCCl): 0.14
Structure (SMILES): F[B-]1(F)n2c(c3ccccc3c2-c2ccccc2)N=C2c3ccccc3C(c3ccccc3)=[N+]21

photoluminescence quantum yield (in CCCCCC): 0.7
Structure (SMILES): CC(C)[Si](C#Cc1c2ccccc2c(C#C[Si](C(C)C)(C(C)C)C(C)C)c2nc3c(nc12)C1c2ccccc2C3c2ccccc21)(C(C)C)C(C)C

photoluminescence quantum yield (in ClCCl): 0.062
Structure (SMILES): COc1ccc2oc(=N)c(C#N)cc2c1

Structure (SMILES): C1=[N+](c2ccccc2)[B-]2(Oc3c1ccc1c4c(ccc31)C=[N+](c1ccccc1)[B-]1(O4)c3ccccc3Oc3ccccc31)c1ccccc1Oc1ccccc12
photoluminescence quantum yield (in Cc1ccccc1): 0.77
photoluminescence quantum yield (in ClCCl): 0.81

Structure (SMILES): CCn1c2ccccc2c2cc(-c3cc(-c4ccc5c(c4)c4ccccc4n5CC)nc(S(C)(=O)=O)n3)ccc21
photoluminescence quantum yield (in C1CCOC1): 0.61
photoluminescence quantum yield (in CCOC(C)=O): 0.76
photoluminescence quantum yield (in CN(C)C=O): 0.6
photoluminescence quantum yield (in Cc1ccccc1): 0.77
photoluminescence quantum yield (in ClCCl): 0.72

photoluminescence quantum yield (in CCO): 0.37
photoluminescence quantum yield (in O): 0.45
Structure (SMILES): CC/[NH+]=c1\cc2oc3cc(NCCC(=O)NCC(=O)OC)c4ccccc4c3nc-2cc1C

photoluminescence quantum yield (in ClCCl): 0.77
Structure (SMILES): COc1ccccc1C1=[N+]2C(=Cc3c4c(c(-c5ccccc5OC)n3[B-]2(F)F)C2CCC4CC2)C2=C1C1CCC2CC1

photoluminescence quantum yield (in CC#N): 0.41
Structure (SMILES): CCCC(=O)c1c(OCOC)c(OCOC)c(C(=O)CCC)c2c1OCO2

photoluminescence quantum yield (in ClCCl): 0.85
Structure (SMILES): COc1ccc(C#Cc2c3ccccc3c(C#Cc3ccc(OC)cc3)c3cc4ccccc4cc23)cc1

Structure (SMILES): CCCCCCCCOc1ccc(C#Cc2ccc(C#Cc3ccc(OCCCCCCCC)c(OCCCCCCCC)c3)c3nc4c5ccccc5c5ccccc5c4nc23)cc1OCCCCCCCC
photoluminescence quantum yield (in C1CCOC1): 0.18
photoluminescence quantum yield (in Cc1ccccc1): 0.19
photoluminescence quantum yield (in ClCCl): 0.33

photoluminescence quantum yield (in ClC(Cl)Cl): 0.05
Structure (SMILES): c1ccc(-c2ncc3ccccn23)cc1

photoluminescence quantum yield (in ClCCl): 0.76
Structure (SMILES): c1ccc2cc(-c3c4ccccc4c(-c4ccc(-n5c6ccccc6c6ccccc65)cc4)c4ccccc34)ccc2c1

Structure (SMILES): N#Cc1cc(N2c3ccccc3Oc3ccccc32)c(N2c3ccccc3Oc3ccccc32)cc1C#N
photoluminescence quantum yield (in c1ccc2c(c1)c1ccccc1n2-c1ccc(-c2ccc(-n3c4ccccc4c4ccccc43)cc2)cc1): 0.064

photoluminescence quantum yield (in ClC(Cl)Cl): 0.78
Structure (SMILES): N#Cc1c2oc3ccccc3oc2c(C#N)c2oc3ccccc3oc12

photoluminescence quantum yield (in C1CCCCC1): 0.79
Structure (SMILES): CCCC1(CCC)c2cc(-c3ccc(-c4ccc(OC)cc4)o3)ccc2-c2ccc(-c3ccc(-c4ccc(OC)cc4)o3)cc21

photoluminescence quantum yield (in ClCCl): 0.019
Structure (SMILES): Cc1cc(=O)cc(-c2ccc(-c3nc4ccccn4c3NC3CCCCC3)cc2)o1

photoluminescence quantum yield (in O): 0.628
Structure (SMILES): O=C([O-])c1c(Cl)c(Cl)c(Cl)c(Cl)c1-c1c2cc(Cl)c(=O)c(Cl)c-2oc2c(Cl)c(O)c(Cl)cc12

Structure (SMILES): c1cc2c3c(c1)-c1ccc4c5c(ccc(c15)B3c1ccc3c5c(ccc-2c15)CC3)CC4
photoluminescence quantum yield (in Cc1ccccc1): 0.79

photoluminescence quantum yield (in C1CCCCC1): 0.005
photoluminescence quantum yield (in CO): 0.001
Structure (SMILES): COc1ccc(/C=C/c2nc3ccccc3s2)cc1

Structure (SMILES): CC(C)(C)c1ccc2c(c1)c1cc(C(C)(C)C)ccc1n2-c1ccc2oc3nc4oc5ccc(C(F)(F)F)cc5c4cc3c2c1
photoluminescence quantum yield (in C1CCCCC1): 0.113
photoluminescence quantum yield (in C1CCOC1): 0.073
photoluminescence quantum yield (in CC#N): 0.032
photoluminescence quantum yield (in CS(C)=O): 0.124
photoluminescence quantum yield (in Cc1ccccc1): 0.094
photoluminescence quantum yield (in ClC(Cl)Cl): 0.058

photoluminescence quantum yield (in ClCCl): 0.34
Structure (SMILES): CCCCCCCCCCCCCCCCCCOC(=O)/C=C/C1=CC2=C(c3c(C)cc(C)cc3C)c3cccn3[B-](F)(F)[N+]2=C1

photoluminescence quantum yield (in ClCCl): 0.3
Structure (SMILES): Cc1cc(C)c(C2=C3C=C(/C=C/C(=O)OC(C)(C)C)C=[N+]3[B-](F)(F)n3cccc32)c(C)c1

photoluminescence quantum yield (in ClC(Cl)Cl): 0.186
Structure (SMILES): O=C1c2ccc3c4c(-c5ccccc5)cc5c6c(ccc(c7c(-c8ccccc8)cc(c2c37)C(=O)N1C1CCCCC1)c64)C(=O)N(C1CCCCC1)C5=O

photoluminescence quantum yield (in ClC(Cl)Cl): 0.17
Structure (SMILES): CC[N+](CC)=c1ccc2c(-c3ccccc3C(=O)O)c3cc4c(-c5ccccc5C(=O)O)c5ccc(=[N+](CC)CC)cc-5oc4cc3oc-2c1

photoluminescence quantum yield (in ClC(Cl)Cl): 0.13
Structure (SMILES): N#CC1=CC(/C=C/c2ccccc2)=CC(C#N)=P1(c1ccccc1)c1ccccc1

photoluminescence quantum yield (in CCO): 0.49
Structure (SMILES): CCOC(=O)c1cc(C(=O)OCC)c2cc(N(CC)CC)ccc2n1

photoluminescence quantum yield (in ClCCl): 0.6
Structure (SMILES): CN(C)c1ccc(C#Cc2cc(C#Cc3ccc(N(C)C)cc3)c3ccc4c(C#Cc5ccc(N(C)C)cc5)cc(C#Cc5ccc(N(C)C)cc5)c5ccc2c3c54)cc1

photoluminescence quantum yield (in ClC(Cl)Cl): 0.01
photoluminescence quantum yield (in ClCCl): 0.009
Structure (SMILES): COc1cc2cc(OC)c(-c3ccc([N+](=O)[O-])cc3)cc2cc1-c1ccc([N+](=O)[O-])cc1

photoluminescence quantum yield (in CC#N): 0.25
photoluminescence quantum yield (in ClCCl): 0.44
Structure (SMILES): CNC(=O)[C@H](C)NC(=O)c1cccc2c1C#Cc1c(N)cccc1OCCCO2

Structure (SMILES): COc1ccc(C2=[N+]3C(=Nc4c(-c5cc(OC)c(OC)c(OC)c5)cc(-c5ccc(OC)cc5)n4[B-]3(F)F)C(c3cc(OC)c(OC)c(OC)c3)=C2)cc1
photoluminescence quantum yield (in Cc1ccccc1): 0.24

photoluminescence quantum yield (in ClCCl): 0.61
Structure (SMILES): Cc1ccc(N(c2ccc(C)cc2)c2ccc3c4cccc5c(N(c6ccc(C)cc6)c6ccc(C)cc6)ccc(c6cccc2c63)c54)cc1

photoluminescence quantum yield (in ClCCl): 0.00065
Structure (SMILES): COc1cc2c(cc1OC)C1=C[C@H](c3ccc(Cl)cc3)C3(C(C#N)=C(C#N)N1CC2)c1cc(Cl)ccc1-c1ccc(Cl)cc13

photoluminescence quantum yield (in ClCCl): 0.89
Structure (SMILES): c1ccc2c(c1)OP1(=NP(Oc3ccc4ccc5cccc6ccc3c4c56)(Oc3ccc4ccc5cccc6ccc3c4c56)=NP(Oc3ccc4ccc5cccc6ccc3c4c56)(Oc3ccc4ccc5cccc6ccc3c4c56)=N1)Oc1ccccc1-2

photoluminescence quantum yield (in CN(C)C=O): 0.8
Structure (SMILES): CCCCCCCCCCCCCCCCCCN1C(=O)c2ccc3c4ccc5c6c(ccc(c7ccc(c2c37)C1=O)c64)C(=O)N(CCCCCCCCCCCCCCCCCC)C5=O

photoluminescence quantum yield (in ClCCl): 0.18
Structure (SMILES): Clc1ccc(N2c3sc4ccccc4c3Sc3c2sc2ccccc32)cc1

photoluminescence quantum yield (in ClC(Cl)Cl): 0.697
Structure (SMILES): CCCCc1c2c(nc3ccccc13)-c1cc3c(cc1CC2)-c1nc2ccccc2c(CCCC)c1CC3

Structure (SMILES): O=[N+]([O-])c1ccc([N+]2=Cc3ccc4c5c(ccc4c3O[B-]2(c2c(F)c(F)c(F)c(F)c2F)c2c(F)c(F)c(F)c(F)c2F)C=[N+](c2ccc([N+](=O)[O-])cc2)[B-](c2c(F)c(F)c(F)c(F)c2F)(c2c(F)c(F)c(F)c(F)c2F)O5)cc1
photoluminescence quantum yield (in Cc1ccccc1): 0.83
photoluminescence quantum yield (in ClCCl): 0.66

photoluminescence quantum yield (in CC(C)O): 0.14
photoluminescence quantum yield (in CCO): 0.11
photoluminescence quantum yield (in CO): 0.08
photoluminescence quantum yield (in O): 0.018
Structure (SMILES): O=C([O-])c1c(Cl)c(Cl)c(Cl)c(Cl)c1-c1c2cc(I)c(=O)c(I)c-2oc2c(I)c([O-])c(I)cc12

photoluminescence quantum yield (in ClC(Cl)Cl): 0.03
Structure (SMILES): CC1=CC(C)=[N+]2C1=C(C1=C(C)C3=C(C)c4c(C)cc(C)n4[B-](F)(F)[N+]3=C1C)c1c(C)cc(C)n1[B-]2(F)F

photoluminescence quantum yield (in CC#N): 0.03
photoluminescence quantum yield (in ClCCl): 0.99
Structure (SMILES): COC(=O)c1cc(=O)n(C)c2cc(-c3ccc(N4CCN(C)CC4)cc3)sc12

photoluminescence quantum yield (in CS(C)=O): 0.11
Structure (SMILES): C[N+]1=C(/C=C/C=C2/N(CCC[N+](C)(C)C)c3ccc(Br)cc3C2(C)C)C(C)(C)c2ccccc21

photoluminescence quantum yield (in ClC(Cl)Cl): 0.089
Structure (SMILES): CCCCCCN1C(=O)c2cccc3cc(/N=C\c4ccc(N5CCOCC5)cc4)cc(c23)C1=O

photoluminescence quantum yield (in ClCCl): 0.17
Structure (SMILES): COC(=O)CCC1=CC(C#Cc2cccs2)=[N+]2C1=Cc1c(CCC(=O)OC)cc(C#Cc3cccs3)n1[B-]2(F)F

Source: the Deep4Chem optical property database
